In the assay the target is γ-secretase (Homo sapiens, UniProt P49768). Briefly: Cellular γ-secretase assay (inhibition of Aβ42 secretion, AlphaLisa). In kind it is cell-based. The note with it: human neuroglioma H4 cells overexpressing human APP695 Swedish double mutation, 24 h compound incubation. As to the method:
2.1) Assay Procedure: Cellular γ-Secretase Assay Human neuroglioma H4 cells overexpressing human APP695 with the Swedish double mutation (K595N/M596L) were plated at 30,000 cells/well/100 μL in 96-well plates in IMDM containing 10% FCS, 0.2 mg/L Hygromycin B and incubated at 37° C., 5% CO2. 3-4 h post plating, compounds are a diluted in media and 50 μL is added as 1.5-fold concentrate to achieve the final concentration. Compound incubation is performed for 24 h. Final doses typically range from 4 μM down to 0.0013 μM in half-log steps resulting in an eight-point dose response curve. Appropriate controls using vehicle only and reference compound were applied to this assay. The final concentration of Me2SO was 0.4%. After incubation at 37° C., 5% CO2, the supernatant was subjected to quantification of secreted Aβ42 by the means of an AlphaLisa® assay kit (Human Amyloid beta 1-42 Kit, Perkin Elmer Inc.). 20 μL of the cell culture supernatant was transferred to an assay plate. Then 10 μL of a mixture of the AlphaLisa® coupled capture antibody and the biotinylated detection antibody was added and incubated for 3 h at RT while softly shaking the assay plate. After a further addition of 20 μL of the Donor beads the assay plate was incubated for 30 min at RT and constant shaking without exposure to direct light. The assay plate was then read on a Paradigm AlphaLisa® Reader using the build-in program with excitation at 680 nm and emission at 570 nm. The measured signals were then used to calculate IC50 values for inhibition of Aβ42 secretion by nonlinear regression fit analysis using XLfit 5.3 software (from IDBS Ltd).

What is called IC50 is the concentration that gives 50% inhibition. Lower therefore signals greater potency. In turn, `COc1cc(N2C[C@H]3CC[C@@H](C2)[C@@H]3Nc2nc3n(n2)CC[C@H]3Oc2cc(F)cc(F)c2)cnn1` (single isomer, unassigned) [Example 1] came in with a half-maximal inhibitory concentration (IC50) of 12.8 nM.
`COc1cc(N2C[C@H]3CC[C@@H](C2)[C@@H]3Nc2nc3n(n2)CC[C@@H]3Oc2cc(F)cc(F)c2)cnn1` (single isomer, unassigned) [Example 2] showed a 50% inhibitory concentration (IC50) of 73.8 nM.
The value for `COc1cc(N2C[C@H]3CC[C@@H](C2)[C@@H]3Nc2nc3n(n2)CCC[C@H]3Oc2cc(F)cc(F)c2)cnn1` (single isomer, unassigned) [Example 9] was 10.6 nM; that for `Cc1cc(N2C[C@H]3CC[C@@H](C2)[C@@H]3Nc2nc3n(n2)CCC[C@@H]3Oc2cc(F)cc(Cl)c2)cnn1` (single isomer, unassigned) [Example 14] was 62.7 nM.
The value for `COc1cc(N2C[C@H]3CC[C@@H](C2)[C@@H]3Nc2nc3n(n2)CCC[C@H]3Oc2ccccc2Cl)cnn1` (single isomer, unassigned) [Example 25] was 15.7 nM; that for `Cc1cc(N2C[C@H]3CC[C@@H](C2)[C@@H]3Nc2nc3n(n2)CC[C@@H]3Oc2ccc(Cl)cc2)ncn1` (single isomer, unassigned) [Example 28] was 71.4 nM.
The value for `Cc1cc(N2C[C@H]3CC[C@@H](C2)[C@@H]3Nc2nc3n(n2)CC[C@@H]3Oc2cccc(Cl)c2)ncn1` (single isomer, unassigned) [Example 30] was 51.9 nM.
In turn, `Cc1cc(N2C[C@H]3CC[C@@H](C2)[C@@H]3Nc2nc3n(n2)CCC[C@H]3Oc2ccc(F)cc2F)ncn1` (single isomer, unassigned) [Example 37] gave an IC50 of 21.6 nM.
Compound `Cc1cc(N2C[C@H]3CC[C@@H](C2)[C@@H]3Nc2nc3n(n2)CC[C@H]3Oc2cc(F)cc(F)c2)ncn1` (single isomer, unassigned) [Example 39] showed a 50% inhibitory concentration (IC50) of 15.6 nM. This IC50 and that of the compound before are within 1.5-fold of each other.
Compound `Cc1cc(N2C[C@H]3CC[C@@H](C2)[C@@H]3Nc2nc3n(n2)CCCC[C@@H]3Oc2ccc(F)c(F)c2F)ncn1` (single isomer, unassigned) [Example 62] gave an IC50 of 65.8 nM.

The values are drawn from patent US12195470B2, “7-phenoxy-N-(3-azabicyclo[3.2.1]octan-8-yl-6,7-dihydro-5H-pyrrolo[1,2-b][1,2,4]triazol-2-amine derivatives and related compounds as gamma- secretase modulators for the treatment of alzheimer's disease” (Hoffmann-La Roche Inc., priority 2018, dated 2025).
